Experimental data reported in ChEMBL document CHEMBL3301361, “Experimental in vitro DMPK and physicochemical data on a set of publicly disclosed compounds”.

Legend:
[1] = in vitro; settings: human
[2] = physchem; settings: octan-1-ol/water
[3] = in vitro; settings: hepatocytes
[4] = in vitro; settings: human, plasma

CC(C)c1ccc(NC(=O)NCCCSC[C@H]2O[C@@H](n3cnc4c(N)ncnc43)[C@H](O)[C@@H]2O)cc1
microsomal CLint ([1]; liver microsomes): 126 µL/min/mg | logD ([2]; pH 7.4, LogD7.4): 2.5 | hepatocyte CLint [3]: 110 µL/min/1e6 cells | fraction unbound at 5 h ([4]; PPB): 0.0784

CCOc1ccc(NC(C)=O)cc1 [PHENACETIN]
microsomal CLint ([1]; liver microsomes): 24.6 µL/min/mg | logD ([2]; pH 7.4, LogD7.4): 1.5 | hepatocyte CLint [3]: 26.9 µL/min/1e6 cells | fraction unbound at 5 h ([4]; PPB): 0.651

Cc1ccc(S(=O)(=O)Nc2c(C(=O)N[C@@H](C)C(C)(C)C)c(C)nn2C2CCN(CC(F)(F)F)CC2)cc1
microsomal CLint ([1]; microsomes): < 3 µL/min/mg | logD ([2]; pH 7.4, LogD7.4): 1.08 | hepatocyte CLint [3]: < 3 µL/min/1e6 cells | fraction unbound at 5 h ([4]; PPB): 0.117

O=S1(=O)CC(O)C(N2CCC(c3ccccc3)CC2)C1 (stereo not given)
microsomal CLint ([1]; microsomes): 5.25 µL/min/mg | logD ([2]; pH 7.4, LogD7.4): 1.4 | hepatocyte CLint [3]: 75.9 µL/min/1e6 cells | fraction unbound at 5 h ([4]; PPB): 0.569

Cc1ccc(S(=O)(=O)N2N=Cc3ccccc3B2O)cc1
microsomal CLint ([1]; liver microsomes): 14.1 µL/min/mg | logD ([2]; pH 7.4, LogD7.4): 0.05 | hepatocyte CLint [3]: 6.17 µL/min/1e6 cells | fraction unbound at 5 h ([4]; PPB): 0.0836

Cc1oc(-c2ccccc2)cc1C(=O)Nc1cccc(C(=O)O)c1
microsomal CLint ([1]; liver microsomes): 4.17 µL/min/mg | logD ([2]; pH 7.4, LogD7.4): 1.63 | hepatocyte CLint [3]: 66.1 µL/min/1e6 cells | fraction unbound at 5 h ([4]; PPB): 0.002

Clc1cccc(-c2cnc3ccc(NC4CCOCC4)nn23)c1
microsomal CLint ([1]; liver microsomes): 9.12 µL/min/mg | logD ([2]; pH 7.4, LogD7.4): 4.3 | hepatocyte CLint [3]: 14.8 µL/min/1e6 cells | fraction unbound at 5 h ([4]; PPB): 0.009

O=C(Nc1cc(-c2ccncc2)c[nH]c1=O)[C@H](Cc1ccccc1)NC1(c2ccccn2)CC1
microsomal CLint ([1]; liver microsomes): 19.1 µL/min/mg | logD ([2]; pH 7.4, LogD7.4): 3.44 | hepatocyte CLint [3]: > 150 µL/min/1e6 cells | fraction unbound at 5 h ([4]; PPB): 0.0287

CCOc1ccc(-n2c([C@@H](C)N(CC3CCN(C)CC3)C(=O)Cc3ccc(F)c(C(F)(F)F)c3)nc3ncccc3c2=O)cc1
microsomal CLint ([1]; liver microsomes): 21.4 µL/min/mg | logD ([2]; pH 7.4, LogD7.4): 1.4 | hepatocyte CLint [3]: 19.9 µL/min/1e6 cells | fraction unbound at 5 h ([4]; PPB): 0.129

NC(=O)c1ccc(N(C(N)=O)c2c(F)cccc2F)nc1-c1ccc(F)cc1F [VX-702]
microsomal CLint ([1]; liver microsomes): 5.13 µL/min/mg | logD ([2]; pH 7.4, LogD7.4): 1.6 | hepatocyte CLint [3]: < 3 µL/min/1e6 cells | fraction unbound at 5 h ([4]; PPB): 0.392

CC(C)N(CCCNC(=O)Nc1ccc(C(C)(C)C)cc1)C[C@H]1O[C@@H](n2ccc3c(N)ncnc32)[C@H](O)[C@@H]1O
microsomal CLint ([1]; liver microsomes): > 150 µL/min/mg | logD ([2]; pH 7.4, LogD7.4): 2.4 | hepatocyte CLint [3]: 33.9 µL/min/1e6 cells | fraction unbound at 5 h ([4]; PPB): 0.201

Cc1cc(CCCOc2c(Cl)cc(C3=NCCO3)cc2Cl)on1
microsomal CLint ([1]; microsomes): 66.1 µL/min/mg | logD ([2]; pH 7.4, LogD7.4): 3.72 | hepatocyte CLint [3]: > 150 µL/min/1e6 cells | fraction unbound at 5 h ([4]; PPB): 0.0034

CC(C)C(=O)Nc1nc(-c2ccccn2)cc2ccccc12
microsomal CLint ([1]; liver microsomes): 105 µL/min/mg | logD ([2]; pH 7.4, LogD7.4): 2.7 | hepatocyte CLint [3]: 61.7 µL/min/1e6 cells | fraction unbound at 5 h ([4]; PPB): 0.0245

CNc1nc(C)c(-c2nc(Nc3cccc(N4CCNCC4)c3)ncc2C#N)s1
microsomal CLint ([1]; microsomes): 17.8 µL/min/mg | logD ([2]; pH 7.4, LogD7.4): 1.9 | hepatocyte CLint [3]: 12.3 µL/min/1e6 cells | fraction unbound at 5 h ([4]; PPB): 0.139

CN[C@@H](C)C(=O)N[C@H](C(=O)N1CC[C@H]2CC[C@H](NC(=O)c3cccc4ccccc34)[C@H]21)C(C)(C)C
microsomal CLint ([1]; liver microsomes): 85.1 µL/min/mg | logD ([2]; pH 7.4, LogD7.4): 1.94 | hepatocyte CLint [3]: 12 µL/min/1e6 cells | fraction unbound at 5 h ([4]; PPB): 0.016

O=C(Nc1ccccc1Cl)c1cc[nH]n1
microsomal CLint ([1]; microsomes): 138 µL/min/mg | logD ([2]; pH 7.4, LogD7.4): 2.58 | hepatocyte CLint [3]: > 150 µL/min/1e6 cells | fraction unbound at 5 h ([4]; PPB): 0.0661

Clc1ccc2ncc(-c3cccc(NC4CNC4)n3)n2c1
microsomal CLint ([1]; liver microsomes): < 3 µL/min/mg | logD ([2]; pH 7.4, LogD7.4): 1.19 | hepatocyte CLint [3]: 19.1 µL/min/1e6 cells | fraction unbound at 5 h ([4]; PPB): 0.163

O=C(O)CCc1ccc(OCc2cc(Cl)ccc2-c2ccccc2)cc1
microsomal CLint ([1]; microsomes): < 3 µL/min/mg | logD ([2]; pH 7.4, LogD7.4): 3.22 | hepatocyte CLint [3]: 13.8 µL/min/1e6 cells | fraction unbound at 5 h ([4]; PPB): 0.002

Cc1cc(C)nc(SCC(N)=O)n1
microsomal CLint ([1]; liver microsomes): < 3 µL/min/mg | logD ([2]; pH 7.4, LogD7.4): 0.23 | hepatocyte CLint [3]: < 3 µL/min/1e6 cells | fraction unbound at 5 h ([4]; PPB): 0.788

C[C@@H](NC(=O)C1CCNCC1)c1ccc(Nc2ncc3cc(-c4ccncc4)ccc3n2)cc1
microsomal CLint ([1]; liver microsomes): 4.17 µL/min/mg | logD ([2]; pH 7.4, LogD7.4): 0.4 | hepatocyte CLint [3]: < 3 µL/min/1e6 cells | fraction unbound at 5 h ([4]; PPB): 0.0477

CC(=O)Nc1nc(CCc2ccc(NC(=N)N)cc2)cs1
microsomal CLint ([1]; liver microsomes): 3.98 µL/min/mg | logD ([2]; pH 7.4, LogD7.4): -0.82 | hepatocyte CLint [3]: 12.9 µL/min/1e6 cells | fraction unbound at 5 h ([4]; PPB): 0.465

CCc1[nH]c2nc(Sc3cnc4ccc[n+]([O-])c4c3)nc(N3C[C@@H]4[C@@H](N)[C@@H]4C3)c2c1Cl
microsomal CLint ([1]; microsomes): 33.9 µL/min/mg | logD ([2]; pH 7.4, LogD7.4): 2.3 | hepatocyte CLint [3]: 58.9 µL/min/1e6 cells | fraction unbound at 5 h ([4]; PPB): 0.0661

O=C(Nc1nc2ccccc2n1CCCO)c1cccc([N+](=O)[O-])c1
microsomal CLint ([1]; microsomes): 112 µL/min/mg | logD ([2]; pH 7.4, LogD7.4): 3 | hepatocyte CLint [3]: 85.1 µL/min/1e6 cells | fraction unbound at 5 h ([4]; PPB): 0.0801

Nc1ncnc2c1ncn2[C@@H]1O[C@H](CSCCCNC(=O)Nc2ccc(Cl)cc2)[C@@H](O)[C@H]1O
microsomal CLint ([1]; liver microsomes): 21.4 µL/min/mg | logD ([2]; pH 7.4, LogD7.4): 2.5 | hepatocyte CLint [3]: 93.3 µL/min/1e6 cells | fraction unbound at 5 h ([4]; PPB): 0.0836

CCOC(=O)c1cnc2c(N)cccc2c1O
microsomal CLint ([1]; liver microsomes): 20.4 µL/min/mg | logD ([2]; pH 7.4, LogD7.4): 0.9 | hepatocyte CLint [3]: > 150 µL/min/1e6 cells | fraction unbound at 5 h ([4]; PPB): 0.201

COC(=O)[C@H](c1ccccc1Cl)N1CCc2sccc2C1 [CLOPIDOGREL]
microsomal CLint ([1]; microsomes): > 150 µL/min/mg | logD ([2]; pH 7.4, LogD7.4): 3.69 | hepatocyte CLint [3]: 137 µL/min/1e6 cells | fraction unbound at 5 h ([4]; PPB): 0.0136

CS(=O)(=O)c1ccc(-c2cnc(N)c(-c3ccc(C(F)(F)F)nc3)c2)cc1 [MMV-048]
microsomal CLint ([1]; liver microsomes): 6.17 µL/min/mg | logD ([2]; pH 7.4, LogD7.4): 2.4 | hepatocyte CLint [3]: 4.79 µL/min/1e6 cells | fraction unbound at 5 h ([4]; PPB): 0.194

CCCNC(=O)CSc1ccc(S(=O)(=O)N2CCCC2)cn1
microsomal CLint ([1]; microsomes): 12.6 µL/min/mg | logD ([2]; pH 7.4, LogD7.4): 1.55 | hepatocyte CLint [3]: 55 µL/min/1e6 cells | fraction unbound at 5 h ([4]; PPB): 0.349

O=C1Nc2ccccc2B(O)N1c1ccccc1
microsomal CLint ([1]; microsomes): 5.13 µL/min/mg | logD ([2]; pH 7.4): 1.4 | hepatocyte CLint [3]: 7.94 µL/min/1e6 cells | fraction unbound at 5 h [4]: 0.179

Nc1ncnc2c1c(COc1cccc(Cl)c1)nn2C1CCOCC1
microsomal CLint ([1]; microsomes): 46.8 µL/min/mg | logD ([2]; pH 7.4, LogD7.4): 3.17 | hepatocyte CLint [3]: > 150 µL/min/1e6 cells | fraction unbound at 5 h ([4]; PPB): 0.0477
